pEC50: −log10 of the molar value. Read-outs that look alike come from different tables or passages of the source.
Tested on: primary astrocytes
Assay: Extracellular lactate quantification
Format: cell-based, mouse
Details: Appendix II; for Score Lact.: CDC54K library; for pEC50: lactate secretion, read-out: EC50
Procedure: Secretion of L-lactate was determined in the extracellular medium of 96-well plated astrocytes after 90 min stimulation (at 37° C., in 5% CO2/95% air conditions) with the drug of interest. The stimulation medium was composed of D5030 medium (completed with D-glucose 5 mM and 44 mM sodium bicarbonate) for 90 min in concentrations ranging from 0 to 100 μM.
Briefly, 200 μl of a Glycine (Sigma)-Semicarbazide (Acros) 0.2M pH 10 buffer containing 3 mM NAD (Roche) and LDH 14 U/ml (Roche) was added to each well of a 96-well plate containing 30 μl aliquots complemented with 20 μl fresh complete D5030 medium. Samples were incubated at 37° C. for 1 h. After samples cooled down at room temperature, the fluorescence intensity (340 nm excitation/450 nm emission) that represents the amount of NADH produced was measured, and lactate concentration values were determined from a standard curve of L-lactate.
Statistical analysis consisted in ANOVA followed by Fisher LSD post-hoc test for pair-wise comparisons.
Levels of lactate secreted by astrocytes were measured in the extracellular medium at 90 min after stimulation with hits (molecules) from the CDC54K library.

Row | Structure (SMILES) | Score Lact. | pEC50 | pEC50 (Mus musculus, Astrocyte)
1 | CCc1cc2c(NC3CCCC3)ncnc2s1 [887-0183] | 0.66 | – | –
2 | Cc1noc2ncnc(NC(C)CCc3ccccc3)c12 (stereo not shown) [E944-0182] | 0.55 | – | –
3 | COc1ccc(S(=O)(=O)Nc2ccc(N3CCCCS3(=O)=O)cc2)cc1F [F2794-0128] | 0.62 | 5.01 | –
4 | Cc1cccc(NS(=O)(=O)c2ccc(F)c(Cl)c2)c1 [F3394-1364] | 0.33 | 5.23 | –
5 | CC(C)(C)c1cccc(CNc2ncnc3[nH]ncc23)c1 [F5285-0069] | 0.36 | – | 5.20
6 | CCc1cccc(NS(=O)(=O)c2ccc3c(c2)CCCN3C(C)=O)c1 [G855-0143] | 0.56 | – | –
7 | CC(=O)N1CCCc2cc(S(=O)(=O)Nc3ccc(OC(F)(F)F)cc3)ccc21 [G855-0183] | 0.54 | – | –
8 | CCNc1cc(C)nc(Nc2ccc(NC(=O)Cc3ccccc3)cc2)n1 [G869-0064] | 0.54 | – | –
9 | CCNc1cc(C)nc(Nc2ccc(NC(=O)C3=CC=CC3)cc2)n1 [G869-0071] | 0.63 | – | 5.31
10 | COc1ccc(CCNc2ncnc3c2cnn3C)cc1 [K405-2595] | 0.70 | – | –
11 | CCOc1ccc(C2=CCc3c2ncn(Cc2ccncc2)c3=O)cc1OCC [L115-0403] | 0.81 | – | 5.48
12 | CC(=O)N1CC(C)(C)c2cc(S(=O)(=O)NCc3ccc(C)cc3)ccc21 [L302-0069] | 0.55 | – | –
13 | CC(=O)N1CC(C)(C)c2cc(S(=O)(=O)Nc3ccc(I)cc3C)ccc21 [L302-0181] | 0.52 | – | 5.30
14 | Cc1cccc(NC(=O)NC2CCN(c3nc4ccccc4n(C)c3=O)CC2)c1 [L932-0267] | 0.53 | – | 5.33
15 | CN(C)c1ccc2ncnc(N3CCN(C(=O)c4ccc(Cl)cc4)CC3)c2c1 [M381-0730] | 0.57 | – | –
16 | CCc1ccc(NC(=O)Cc2cn(C)c3ncccc23)cc1 [M508-0370] | 0.60 | – | –
17 | CCCCN1C(=O)C(C)(C(=O)Nc2ccc(OCC)cc2)Oc2cccnc21 (stereo not shown) [P621-1364] | 0.43 | – | –
18 | Br.CCOc1ccc(C2(O)C(C)C3=C(CCN3)N2c2ccc(OC)cc2)cc1 (stereo not shown) [T0500-6629] | 0.61 | – | 5.58
19 | Cc1nc2ccccc2n1CCOc1ccc(Br)cc1 [T0505-4087] | 0.64 | – | –
20 | C1=C(c2ccccc2)c2c(ncnc2NCCN2CCOCC2)C1.O=C(O)C(=O)O.O=C(O)C(=O)O [T0513-0213] | 0.30 | – | 5.40
21 | CC1(C)Cc2cccc(OCC(O)CN3CCc4ccccc4C3)c2O1 (stereo not shown) [T0515-1783] | 0.59 | – | –
22 | N#Cc1cc(C(=O)c2cc(I)ccc2O)cn(-c2ccc(I)c(Cl)c2)c1=O [T0516-6894] | 0.38 | – | 5.09

Row | Structure (SMILES) | Score Lact. | pEC50 | pEC50 (Mus musculus, Astrocyte)
23 | Cc1[nH]c2nc(CNc3nc4ccccc4c(=O)n3C)[nH]c(=O)c2c1C [T0517-2783] | 0.46 | – | 5.42
24 | COc1ccc(NS(=O)(=O)c2cccc(NC(=O)c3ccc[nH]3)c2)cc1 [T0517-4117] | 0.91 | – | 5.27
25 | CCN(CC)C(=O)c1nc(CNC(=O)c2ccc3ccccc3n2)oc1C [T993-1787] | 0.36 | – | –
26 | O=c1[nH]nc(SCCOc2ccc(Br)cc2)n1C1CC1 [T533260] | 0.53 | – | 5.16
27 | O=S(=O)(Nc1ccc(S(=O)(=O)C(F)F)cc1)c1ccc(Cl)cc1 [T5311200] | 0.56 | – | –
28 | CCOc1ccc(CN(C)CC(=O)Nc2cccc(C)c2)cc1OC [T5318833] | 0.42 | – | –
29 | COc1ccc(NS(=O)(=O)c2ccc(NC(=O)C3CCCO3)cc2)cc1 (stereo not shown) [T5329723] | 0.53 | – | –
30 | CN1c2ccccc2C(=O)NC1c1ccc(Cl)c(Cl)c1 (stereo not shown) [T5389517] | 0.33 | – | –
31 | CN(C)S(=O)(=O)c1cccc(C(=O)Nc2ccc(Oc3ccccc3)cc2)c1 [T5393500] | 0.59 | – | –
32 | Cc1ccc(OCCn2c(C)nc3ccccc32)cc1 [T5444083] | 0.51 | – | –
33 | CCN1C(=O)c2cccc3c(S(=O)(=O)Nc4ccc(OC)cc4OC)ccc1c23 [T5477696] | 0.44 | – | –
34 | Cc1c(O)ccc2c(CN(C)CC3COc4ccccc4O3)cc(=O)oc12 (stereo not shown) [T5494352] | 0.44 | – | –
35 | CCn1c(=O)c(C)nc2cc(C(=O)N(Cc3ccc(C)cc3)C3CC3)ccc21 [T5586091] | 0.45 | – | 5.27
36 | CCCC(=O)NC1=NC(c2ccc3c(c2)CCO3)=CC1 [T5691896] | 0.38 | – | 5.28
37 | Cc1ccc(-c2c[nH]c(NC(=O)c3ccncc3)n2)cc1[N+](=O)[O-] [T5694329] | 0.47 | – | 5.80
38 | CC(=O)c1c(C)[nH]c(C(=O)N(C)Cc2ccc(C)cc2C)c1C [T5705522] | 0.85 | – | –
39 | CC(=O)N1CCc2cc(S(=O)(=O)NCC(C)c3ccccc3)ccc21 (stereo not shown) [T5707230] | 0.67 | 5.31 | –
40 | COc1ccc(C(C)NC(=O)c2cc(=O)c3ccccc3o2)cc1I (stereo not shown) [T5710343] | 0.67 | – | 5.20
41 | CCc1ccccc1NC(=O)CN(C)c1nccc2c1oc1ccccc12 [T5712071] | 0.8 | – | 5.94
42 | CC1=C(C)c2c(N)nc(CCc3nc4ccccc4[nH]3)nc2C1 [T5719257] | 0.74 | – | 5.55
43 | Cc1ccc(S(=O)(=O)Nc2ccc(F)c(F)c2F)cc1[N+](=O)[O-] [T5729557] | 0.88 | – | –
44 | CCc1ccc(S(=O)(=O)Nc2c(C)nn(C)c2C)cc1 [T5753165] | 0.54 | – | –

Row | Structure (SMILES) | Score Lact. | pEC50 | pEC50 (Mus musculus, Astrocyte)
45 | COc1ccccc1NC(=O)CO/N=C(/N)c1cccc(C(C)(F)F)c1 [T5770640] | 0.55 | – | 5.31
46 | COc1cc(C)c(NC(=O)Cc2ccc(C)c(C)c2)cc1OC [T5783794] | 0.44 | – | 5.21
47 | C1=Cc2ncnc(NCc3ccc4c(c3)OCO4)c2C1 [T5787526] | 0.71 | – | 5.41
48 | CC(=O)Nc1cccc(NC(=O)CCc2nc(C)c(C)n2C2CCCC2)c1 [T5788339] | 0.75 | – | 5.41
49 | CCCCn1c(CN(C)Cc2ccccc2)nc2c1c(=O)n(C)c(=O)n2C [T5788545] | 0.45 | – | –
50 | C1=Cc2ncnc(NCc3ccccc3CN3CCOCC3)c2C1 [T5790476] | 0.79 | – | 5.40
51 | CC(=O)c1c(C)[nH]c(C(=O)C(C)N(C)Cc2ccc3c(c2)OCO3)c1C (stereo not shown) [T5798761] | 0.73 | – | –
52 | COc1cccc(C(CNc2nc(C(C)(C)C)nc3ccccc23)N(C)C)c1 (stereo not shown) [T5800607] | 063 | – | 5.23
53 | Cn1nc(C(=O)Nc2ccc(Oc3ccccc3Cl)cc2)ccc1=O [T5813085] | 1.01 | – | –
54 | O=C(O)C(=O)O.c1ccc(Cc2ccc(OCCn3ccnc3)cc2)cc1 [T5821723] | 0.73 | – | –
55 | COc1ccc(-c2csc(N3C(=O)CC4CS(=O)(=O)CC43)n2)cc1 (stereo not shown) [T5832764] | 0.60 | 5.40 | –
56 | Cc1cc(C)cc(NC(=O)CN2CCCC2c2ccc3c(c2)OCCCO3)c1 (stereo not shown) [T5993799] | 1.14 | – | 5.06
57 | Cc1cccc(NC(=O)c2ccc(S(=O)(=O)Nc3ccccc3)cc2)n1 [T6125251] | 0.51 | – | –
58 | O=S(=O)(Nc1ccc(Cl)cc1)c1ccc(F)c(Cl)c1 [T6947848] | 0.98 | – | –
59 | COc1ccc(CC(=O)Nc2ccc(C)c(C)c2)cc1OC [Y030-2832] | 0.34 | – | –
60 | O=C(Nc1ccc(S(=O)(=O)NCC2CCCO2)cc1)c1ccccc1 (stereo not shown) [Y031-0361] | 0.43 | – | –
61 | C1CCCC(NC2=NCCCNC23CCCCC3)CC1 [Z076-0028] | 0.56 | – | –
62 | Cc1nnsc1C(=O)N1CCN(C(C)C)CC1 [Z606-5341] | 0.36 | – | –
63 | Cc1nc2ncnn2c(NC2CCCCCC2)c1C [Z606-8287] | 0.57 | – | –
64 | Cc1nc2ncnn2c(NCc2ccco2)c1C [Z606-8298] | 0.38 | – | –
65 | CCc1c(C)nc2ncnn2c1NC1CCCCCC1 [Z606-8351] | 0.42 | – | –
66 | CCc1c(C)nc2ncnn2c1NC1CCCCC1 [Z606-8352] | 0.83 | – | –

Source: patent publication US12310967B2, “Compositions and methods of treatment for neurological disorders comprising motor neuron diseases” (Gliapharm SA, priority 2017, dated 2025)
